Experiment [1] has as its system mGlu5. Briefly: mGlu5 assays. The following applies: mode of mGlu5 pharmacology (NAM, PAM, Ago-PAM, Part. Antag., Inactive). The class given is cell-based.
Experiment [2] has as its target T1, mGlu5 (Rattus norvegicus, UniProt P31424). The experiment is described as follows: mGlu5 assays. The format is cell-based. The following applies: NAM IC50 relative to 8.
In experiment [3] the test system is mGlu5. The following applies: % partial; cited from earlier work.
For experiment [4], the target named is T1, mGlu5. The following applies: phenylethynyl pyrimidine series; cited from earlier work.
T1 sequence (P31424 21-1203): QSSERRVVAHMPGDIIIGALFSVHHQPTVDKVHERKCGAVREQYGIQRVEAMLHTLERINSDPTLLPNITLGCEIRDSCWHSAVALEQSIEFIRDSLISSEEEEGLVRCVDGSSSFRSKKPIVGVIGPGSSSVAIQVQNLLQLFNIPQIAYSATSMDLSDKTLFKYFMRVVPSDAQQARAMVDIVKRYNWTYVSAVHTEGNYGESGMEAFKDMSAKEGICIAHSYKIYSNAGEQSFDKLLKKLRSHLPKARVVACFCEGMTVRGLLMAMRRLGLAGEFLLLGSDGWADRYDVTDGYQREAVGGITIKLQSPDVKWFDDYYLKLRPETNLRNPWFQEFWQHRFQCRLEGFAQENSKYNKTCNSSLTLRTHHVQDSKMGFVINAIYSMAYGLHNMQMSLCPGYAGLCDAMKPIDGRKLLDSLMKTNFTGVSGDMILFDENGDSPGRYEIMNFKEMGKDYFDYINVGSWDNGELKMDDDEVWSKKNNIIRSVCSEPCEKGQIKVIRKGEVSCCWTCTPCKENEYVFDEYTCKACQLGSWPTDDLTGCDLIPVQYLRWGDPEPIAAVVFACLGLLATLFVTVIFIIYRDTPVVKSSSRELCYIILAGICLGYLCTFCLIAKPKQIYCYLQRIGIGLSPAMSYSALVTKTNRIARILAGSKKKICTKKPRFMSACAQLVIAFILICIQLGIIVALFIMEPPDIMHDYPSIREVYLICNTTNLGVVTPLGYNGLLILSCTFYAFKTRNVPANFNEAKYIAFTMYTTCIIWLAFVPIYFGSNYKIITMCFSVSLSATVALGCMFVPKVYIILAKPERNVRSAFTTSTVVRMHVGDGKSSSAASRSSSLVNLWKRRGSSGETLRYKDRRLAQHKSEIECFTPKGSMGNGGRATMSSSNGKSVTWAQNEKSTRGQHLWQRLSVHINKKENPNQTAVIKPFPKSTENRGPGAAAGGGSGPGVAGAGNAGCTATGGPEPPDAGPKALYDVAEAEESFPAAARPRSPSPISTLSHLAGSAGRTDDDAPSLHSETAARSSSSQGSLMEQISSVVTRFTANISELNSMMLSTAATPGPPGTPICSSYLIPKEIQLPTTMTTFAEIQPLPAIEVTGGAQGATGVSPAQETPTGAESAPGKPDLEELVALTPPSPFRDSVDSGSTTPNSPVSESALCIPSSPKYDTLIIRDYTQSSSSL

The text below walks through data of article PMC3179182 (Bioorganic & medicinal chemistry letters, 2010).

T1 sequence (P31424 21-1203): as above

As to `O=C(C1CCC1)N1CCCC[C@@H]1c1nc(-c2cccc(F)c2)no1` [22b/20e], in the experiment on mGlu5 [1] (listed as 22b), the Pharmacology result is listed as “pure PAM activity”.

In the case of `Cc1cccc(-c2noc([C@H]3CCCCN3C(=O)C3CCCC3)n2)c1` [21c], the Pharmacology result in the experiment on mGlu5 [1] is “partial antagonists”.

On to `O=C(C1CCC1)N1CCCC1c1nc(-c2ccc(F)cc2)no1` (stereo not shown) [23b], for which the Pharmacology result with mGlu5 [1] was “low micromolar PAMs”.

For `Cc1cccc(-c2noc([C@H]3CCCCN3C(=O)C3CCCCC3)n2)c1` [21d], the Pharmacology result in the experiment on mGlu5 [1] is “full non-competitive antagonists (NAMs)”.

`O=C(C1CCC1)N1CCC[C@@H]1c1nc(-c2cccc(F)c2)no1` [(R)-23a]: the Pharmacology entry in the experiment with mGlu5 [1] was “potent mGlu5 PAM”.

Take `O=C(C1CCC1)N1CCC[C@H]1c1nc(-c2cccc(F)c2)no1` [(S)-23a]: in the experiment on mGlu5 [1], the Pharmacology result was “very weak PAM”.

As for `O=C(C1CCC1)N1CCCC1c1nc(-c2cccc(F)c2)no1` (stereo not shown) [23a], in the experiment on mGlu5 [1], the Pharmacology result was “low micromolar PAMs”.

Regarding `O=C(C1CCC1)N1CCC[C@H](c2nc(-c3cccc(Cl)c3)no2)C1` [(S)-15e], in the experiment with mGlu5 [2], the “increase in potency over 8” value is recorded as ~ 41 fold.

Turning to `O=C(C1CCCC1)N1CCCC[C@@H]1c1nc(-c2cccc(F)c2)no1` [22c], the Pharmacology entry with mGlu5 [1] is listed as “ago-PAMs”.

For `C(#Cc1cncnc1)c1ccccc1` [compound 2], the partial antagonism with mGlu5 [3] is 71%.

As to `O=C(C1CCCCC1)N1CCCC[C@@H]1c1nc(-c2cccc(F)c2)no1` [22d], in the experiment with mGlu5 [1], the Pharmacology entry is given as “pure PAM activity”.

The term IC50 denotes the concentration that inhibits the measured activity by half. Regarding `Cc1cccc(C#Cc2cncnc2)c1` [compound 3], the IC50 at mGlu5 [4] was 7.5 nM.

As for `O=C(C1CC1)N1CCCC[C@@H]1c1nc(-c2cccc(F)c2)no1` [22a], in the experiment on mGlu5 [1], the Pharmacology entry is “ago-PAMs”.
